Measurements taken from patent US9409943B2 (Bristol-Myers Squibb Company, priority 2012, dated 2016).
pEC50: −log10 of the molar value.

Columns and labels:
HCV GT1b(Con1) replicon = test: HCV replicon luciferase reporter assay, genotype 1b; assay type: cell-based, HCV genotype 1b; settings: Hepatitis C virus, 72 h, HUH-7 cells, 3 days incubation, read-out: LE_1b (EC50, range)
Description: An HCV GT1b(Con1) replicon cell system was established as described by Lohmann V, Korner F, Koch J, Herian U, Theilmann L, Bartenschlager R., Science 285(5424):110-3 (1999) and modified to introduce a luciferase reporter (Krieger N, Lohmann V, and Bartenschlager R, J. Virol. 75(10):4614-4624 (2001)). cDNA encoding a humanized form of the Renilla luciferase gene, and a linker sequence fused directly to the 3′-end of the luciferase gene were introduced into the replicon construct using an Asc1 restriction site located in core, directly upstream of the neomycin marker gene. The adaptive mutation at position 1179 (serine to isoleucine) was also introduced (Blight K J, Kolykhalov, A A, Rice, C M, Science 290(5498):1972-1974). A stable cell line constitutively expressing this HCV replicon construct was generated by first linearizing plasmid DNAs with ScaI. RNA transcripts were synthesized in vitro using the T7 MegaScript transcription kit (Ambion, Austin, Tex.) according to manufacturer's directions. In vitro transcripts of the cDNA were transfected into the human hepatoma cell line, HUH-7. […] Resulting cell lines were characterized for positive and negative strand RNA production and protein production over time.
(§1) HCV replicon luciferase assays were developed to monitor the inhibitory effects of compounds described in the disclosure on HCV genotypes 1a and 1b viral replication. HUH-7 cells, constitutively expressing the HCV replicon, were grown in Dulbecco's Modified Eagle Media (DMEM) (Gibco-BRL) containing 10% Fetal calf serum (FCS) (Sigma) and 1 mg/mL G418 (Gibco-BRL). Compounds were serially diluted 3 folds in DMSO for a twenty-point titration and subsequently transferred to sterile 384-well tissue-culture treated plates (Corning cat #3571). The plates were then seeded with 50 μL of cells at a density of 3.0×10^3 cells/well in DMEM containing 4% FCS (final DMSO concentration at 0.5%). After 3 days incubation at 37° C., cells were analyzed for Renilla Luciferase activity using the EnduRen as substrate (Promega cat #E6485). The EnduRen substrate was diluted in DMEM and then added to the plates to a final concentration of 7.5 μM. The plates were incubated for 2 hrs at 37° C. and then read immediately for 30 seconds with Viewlux Imager (PerkinElmer) using a luminescence program. To assess cytotoxicity of compounds, CC50 values were generated by multiplexing the EnduRen-containing plates with Cell Titer-Blue (Promega, cat # G8082). Cell-Titer Blue (3 μL) was added to each well and incubated for 8 hrs at 37° C. The fluorescence signal from each well was read, with an excitation wavelength at 525/10 nm and an emission wavelength of 598/10 nm, using the Viewlux Imager.
(§2) The EC50 values for compounds were calculated by using a four-parameter logistic equation: y=A+((B−A)/(1+((C/x)^D))), where A and B denotes minimal and maximal % inhibition, respectively, C is the EC50, D is the hill slope and x represents compound concentration.

HCV GT1a(H77) replicon = test: HCV replicon luciferase reporter assay, genotype 1a; assay type: cell-based, HCV genotype 1a; settings: Hepatitis C virus, 72 h, HUH-7 cells, 3 days incubation, read-out: LE_1a (EC50, range)
Description: A stable HCV GT1a(H77) replicon luciferase reporter cell line (Yanagi M, Purcell R H, Emerson S U, et al. Transcripts from a single full-length cDNA clone of hepatitis C virus are infectious when directly transfected into the liver of a chimpanzee. Proc Natl Acad Sci USA 1997; 94(16):8738-8743) was generated as described previously for the genotype 1b(Con1) replicon luciferase cell line. The replicon construct was modified by introducing mutations into the genes encoding the NS3 helicase domain (proline replaced by leucine at position 1496) and NS5A (serine to isoleucine at position 2204) to improve replication in cell culture.
as §1, §2

SMILES: C[C@@H]1CC/C=C\[C@@H]2C[C@@]2(C(=O)NS(=O)(=O)C2(CF)CC2)NC(=O)[C@@H]2C[C@@H](OC(=O)c3cccc(F)c3)CN2C(=O)[C@@H](NC(=O)OC(C)(C)C(F)(F)F)[C@H](C)C1 [Compound 1010, (2R,6S,7R,9R,13aS,14aR,16aS,Z)-14a-(((1-(fluoromethyl)cyclopropyl)sulfonyl)carbamoyl)-7,9-dimethyl-5,16-dioxo-6-((((1,1,1-trifluoro-2-methylpropan-2-yl)oxy)carbonyl)amino)-1,2,3,5,6,7,8,9,10,11,13a,14,14a,15,16,16a-hexadecahydrocyclopropa[e]pyrrolo[1,2-a][1,4]diazacyclopentadecin-2-yl 3-fluorobenzoate]
- pEC50 (HCV GT1b(Con1) replicon): 8.30 to 9.00
- pEC50 (HCV GT1a(H77) replicon): 7.46 to 8.30

SMILES: Cc1cc(C)c(NC(=O)O[C@@H]2C[C@H]3C(=O)N[C@]4(C(=O)NS(=O)(=O)C5(C)CC5)C[C@H]4/C=C\CC[C@@H](C)C[C@@H](C)[C@H](NC(=O)OC(C)(C)C(F)(F)F)C(=O)N3C2)c(Cl)c1 [Compound 1311]
- pEC50 (HCV GT1b(Con1) replicon): 7.46 to 8.30
- pEC50 (HCV GT1a(H77) replicon): 7.20 to 7.46

SMILES: COc1ccc(C(=O)O[C@@H]2C[C@H]3C(=O)N[C@]4(C(=O)NS(=O)(=O)C5(C)CC5)C[C@H]4/C=C\CC[C@@H](C)C[C@@H](C)[C@H](NC(=O)OC(C)(C)C)C(=O)N3C2)cc1 [Compound 1003, (2R,6S,7R,9R,13aS,14aR,16aS,Z)-6-((tert-butoxycarbonyl)amino)-7,9-dimethyl-14a-(((1-methylcyclopropyl)sulfonyl)carbamoyl)-5,16-dioxo-1,2,3,5,6,7,8,9,10,11,13a,14,14a,15,16,16a-hexadecahydrocyclopropa[e]pyrrolo[1,2-a][1,4]diazacyclopentadecin-2-yl 4-methoxybenzoate]
- pEC50 (HCV GT1b(Con1) replicon): 7.46 to 8.30
- pEC50 (HCV GT1a(H77) replicon): 7.46 to 8.30

SMILES: C[C@@H]1CC/C=C\[C@@H]2C[C@@]2(C(=O)NS(=O)(=O)C2(CF)CC2)NC(=O)[C@@H]2C[C@@H](OC(=O)c3ccccc3C(F)(F)F)CN2C(=O)[C@@H](NC(=O)OC(C)(C)C(F)(F)F)[C@H](C)C1 [Compound 1002, (2R,6S,7R,9R,13aS,14aR,16aS,Z)-14a-(((1-(fluoromethyl)cyclopropyl)sulfonyl)carbamoyl)-7,9-dimethyl-5,16-dioxo-6-((((1,1,1-trifluoro-2-methylpropan-2-yl)oxy)carbonyl)amino)-1,2,3,5,6,7,8,9,10,11,13a,14,14a,15,16,16a-hexadecahydrocyclopropa[e]pyrrolo[1,2-a][1,4]diazacyclopentadecin-2-yl 2-(trifluoromethyl)benzoate]
- pEC50 (HCV GT1b(Con1) replicon): 8.30 to 9.00
- pEC50 (HCV GT1a(H77) replicon): 7.46 to 8.30

SMILES: C[C@H]1CC/C=C\[C@@H]2C[C@@]2(C(=O)NS(=O)(=O)C2(C)CC2)NC(=O)[C@@H]2C[C@@H](OC(=O)N3Cc4cccc(F)c4C3)CN2C(=O)[C@@H](NC(=O)OC(C)(C)C)[C@H](C)C1 [Compound 1314, (2R,6S,7R,9S,13aS,14aR,16aS,Z)-6-((tert-butoxycarbonyl)amino)-7,9-dimethyl-14a-(((1-methylcyclopropyl)sulfonyl)carbamoyl)-5,16-dioxo-1,2,3,5,6,7,8,9,10,11,13a,14,14a,15,16,16a-hexadecahydrocyclopropa[e]pyrrolo[1,2-a][1,4]diazacyclopentadecin-2-yl 4-fluoroisoindoline-2-carboxylate]
- pEC50 (HCV GT1b(Con1) replicon): 8.30 to 9.00
- pEC50 (HCV GT1a(H77) replicon): 7.46 to 8.30

SMILES: COc1ccccc1C(=O)O[C@@H]1C[C@H]2C(=O)N[C@]3(C(=O)NS(=O)(=O)C4(CF)CC4)C[C@H]3/C=C\CC[C@@H](C)C[C@@H](C)[C@H](NC(=O)OC(C)(C)C(F)(F)F)C(=O)N2C1 [Compound 1008, (2R,6S,7R,9R,13aS,14aR,16aS,Z)-14a-(((1-(fluoromethyl)cyclopropyl)sulfonyl)carbamoyl)-7,9-dimethyl-5,16-dioxo-6-((((1,1,1-trifluoro-2-methylpropan-2-yl)oxy)carbonyl)amino)-1,2,3,5,6,7,8,9,10,11,13a,14,14a,15,16,16a-hexadecahydrocyclopropa[e]pyrrolo[1,2-a][1,4]diazacyclopentadecin-2-yl 2-methoxybenzoate]
- pEC50 (HCV GT1b(Con1) replicon): 8.30 to 9.00
- pEC50 (HCV GT1a(H77) replicon): 7.46 to 8.30

SMILES: Cc1cc(C)c(NC(=O)O[C@@H]2C[C@H]3C(=O)N[C@]4(C(=O)NS(=O)(=O)C5(C)CC5)C[C@H]4/C=C\CC[C@@H](C)C[C@@H](C)[C@H](NC(=O)OC(C)(C)C)C(=O)N3C2)c(Cl)c1 [Compound 1306]
- pEC50 (HCV GT1b(Con1) replicon): 7.46 to 8.30
- pEC50 (HCV GT1a(H77) replicon): 7.46 to 8.30
